Experimental data as given in patent US20130244879A1, “USE OF LIPO-CHITOOLIGOSACCHARIDES TO INITIATE EARLY FLOWERING AND FRUIT DEVELOPMENT IN PLANTS AND RELATED METHODS AND COMPOSITIONS” (NOVOZYMES BIOLOGICALS HOLDING A/S, priority 2003, published 2013).

What was measured:
Ridgetown canning tomato = assay: Experiment 10: effect of LCO on Ridgetown canning tomato; type: in vivo; details: for Fruit number (on 24 plants) / Fruit number Increase vs. CK (%) / Fruit weight (kg/24 plants) / Fruit weight Increase vs. CK (%): first harvesting
Method: The experiment was conducted at Ridgetown College, University of Guelph, Ridgetown, Ontario. Tomatoes were transplanted in single twin rows, 7 m in length spaced 1.65 m apart. Treatments of LCO were applied three times, two weeks before flowering (28 days after transplant), two weeks after flowering (52 days after transplant) and six weeks after flowering (69 days after transplant). Spray applications were applied using a specialized, small plot research CO2 sprayer with a two-nozzled, hand-held boom applying 200 L/ha of spray. Rates were determined based on 38 tomato plants per plot, replicated 4 times, equaling 152 plants per treatment. Early fruit was harvested for yield evaluation on Aug. 20, 2003.

soybean (cv. Nortman) = assay: Experiment 18: LCO foliar application on legume (soybean); type: in vivo
Method: A short heat-unit variety of soybean (cv. Nortman, HU 2425) was planted at density of plants on the field of approx. 300 plants per plot (500,000 plants/ha). The soybean plants were first treated with LCO at their blooming stage 24 days after planting. The treatment amounts of LCO (detailed above) were diluted with distilled water to give a 2-litre solution sprayed over 4 plots of the treatment. The second application was sprayed at the podding stage 49 days after planting. As before, the LCO was diluted with distilled water to 2-litre solution per 4 plots of the treatment. The plants receiving a single application were sprayed with LCO for the first time, whereas the plants receiving a double application were sprayed for the second time. A CO2 pressure sprayer was employed for this trial. The amount of fluid dispensed by the sprayer was controlled by the nozzle size. It was calibrated with water prior to spraying with LCO. Biomass was examined 58 days after planting by digging out by hand 5 plants per plot. The final yield was obtained by harvesting by combine the intact area (2-meter long to the end) 101 days after planting. The data were analyzed with the SAS program.

[1] = applied 2 weeks before and after flowering

Lipo-chitooligosaccharides [LCO]
increased fruit number (Ridgetown canning tomato; [1]): up to 20%
increased fruit weight (Ridgetown canning tomato; [1]): up to 16%
Fruit number (on 24 plants) (Ridgetown canning tomato; treatment 0-50-0): 209AB
Fruit number Increase vs. CK (%) (Ridgetown canning tomato; treatment 0-50-0): 14.2%
Fruit weight (kg/24 plants) (Ridgetown canning tomato; treatment 0-50-0): 12.598 kg/24 plants
Fruit weight Increase vs. CK (%) (Ridgetown canning tomato; treatment 0-50-0): 16.2%
Fruit number (on 24 plants) (Ridgetown canning tomato; treatment 0-50-75): 191AB
Fruit number Increase vs. CK (%) (Ridgetown canning tomato; treatment 0-50-75): 4.4%
Fruit weight (kg/24 plants) (Ridgetown canning tomato; treatment 0-50-75): 11.352 kg/24 plants
Fruit weight Increase vs. CK (%) (Ridgetown canning tomato; treatment 0-50-75): 4.7%
Fruit number (on 24 plants) (Ridgetown canning tomato; treatment 50-0-0): 206AB
Fruit number Increase vs. CK (%) (Ridgetown canning tomato; treatment 50-0-0): 12.6%
Fruit weight (kg/24 plants) (Ridgetown canning tomato; treatment 50-0-0): 11.916 kg/24 plants
Fruit weight Increase vs. CK (%) (Ridgetown canning tomato; treatment 50-0-0): 9.9%
Fruit number (on 24 plants) (Ridgetown canning tomato; treatment 50-50-0): 219A
Fruit number Increase vs. CK (%) (Ridgetown canning tomato; treatment 50-50-0): 19.7%
Fruit weight (kg/24 plants) (Ridgetown canning tomato; treatment 50-50-0): 12.567 kg/24 plants
Fruit weight Increase vs. CK (%) (Ridgetown canning tomato; treatment 50-50-0): 15.9%
Fruit number (on 24 plants) (Ridgetown canning tomato; treatment 50-75-0): 199AB
Fruit number Increase vs. CK (%) (Ridgetown canning tomato; treatment 50-75-0): 8.7%
Fruit weight (kg/24 plants) (Ridgetown canning tomato; treatment 50-75-0): 11.421 kg/24 plants
Fruit weight Increase vs. CK (%) (Ridgetown canning tomato; treatment 50-75-0): 5.3%
Biomass (g/5-plant) (soybean (cv. Nortman); LCO 1 ng, applied once): 49.46 AB g/5-plant
Yield (kg/ha) (soybean (cv. Nortman); LCO 1 ng, applied once): 2563.96 AB kg/ha
Biomass (g/5-plant) (soybean (cv. Nortman); LCO 1 ng, applied twice): 55.10 AB g/5-plant
Yield (kg/ha) (soybean (cv. Nortman); LCO 1 ng, applied twice): 2673.54 AB kg/ha
Biomass (g/5-plant) (soybean (cv. Nortman); LCO 10 ng, applied once): 46.28 AB g/5-plant
Yield (kg/ha) (soybean (cv. Nortman); LCO 10 ng, applied once): 2515.33 B kg/ha
Biomass (g/5-plant) (soybean (cv. Nortman); LCO 10 ng, applied twice): 60.11 A g/5-plant
Yield (kg/ha) (soybean (cv. Nortman); LCO 10 ng, applied twice): 2385.75 B kg/ha
Biomass (g/5-plant) (soybean (cv. Nortman); LCO 100 ng, applied once): 46.87 AB g/5-plant
Yield (kg/ha) (soybean (cv. Nortman); LCO 100 ng, applied once): 2635.00 AB kg/ha
Biomass (g/5-plant) (soybean (cv. Nortman); LCO 100 ng, applied twice): 55.09 AB g/5-plant
Yield (kg/ha) (soybean (cv. Nortman); LCO 100 ng, applied twice): 2974.17 A kg/ha
Biomass (g/5-plant) (soybean (cv. Nortman); LCO 1000 ng, applied once): 47.99 AB g/5-plant
Yield (kg/ha) (soybean (cv. Nortman); LCO 1000 ng, applied once): 2452.71 B kg/ha
Biomass (g/5-plant) (soybean (cv. Nortman); LCO 1000 ng, applied twice): 47.81 AB g/5-plant
Yield (kg/ha) (soybean (cv. Nortman); LCO 1000 ng, applied twice): 2620.42 AB kg/ha
